The results in this text go back to patent publication US20240124487A1, “BRANCHED MACROCYCLIC 4-(PYRAZOL-5-YL)-INDOLE DERIVATIVES AS INHIBITORS OF MCL-1” (JANSSEN PHARMACEUTICA NV, priority 2020, published 2024).

In experiment [1] the target is Myeloid Cell Leukemia 1 (Mcl-1) (Homo sapiens (Human), UniProt Q07820). As to the kind of experiment: Terbium labeled Mcl-1 HTRF binding assay (displacement of Cy5-labeled BIM BH3 peptide). The conditions noted are these: 25 pM Tb-Mcl-1, 8 nM Cy5 Bim peptide, Ki=IC50/(1+[L]/Kd), [L]=8 nM, Kd=10 nM, read-out: TB-MCL1 Ki. On the procedure:
Terbium labeled Myeloid Cell Leukemia 1 (Mcl-1) homogeneous time-resolved fluorescence (HTRF) binding assay utilizing the BIM BH3 peptide (H2N-(C/Cy5Mal) WIAQELRRIGDEFN-OH) as the binding partner for Mcl-1.
This assay evaluated inhibition of the BH3 domain: Mcl-1 interaction by measuring the displacement of Cy5-labeled BIM BH3 peptide (H2N—(C/Cy5Mal) WIAQELRRIGDEFN-OH) in the HTRF assay format.
The following assay and stock buffers were prepared for use in the assay: (a) Stock buffer: 10 mM Tris-HCl, pH=7.5+150 mM NaCl, filtered, sterilized, and stored at 4° C.; and (b) 1× assay buffer, where the following ingredients were added fresh to stock buffer: 2 mM dithiothreitol (DTT), 0.0025% Tween-20, 0.1 mg/mL bovine serum albumin (BSA). The 1×Tb-Mcl-1+Cy5 Bim peptide solution was prepared by diluting the protein stock solution using the 1× assay buffer (b) to 25 pM Tb-Mcl-1 and 8 nM Cy5 Bim peptide.
Using the Acoustic ECHO, 100 nL of 100× test compound(s) were dispensed into individual wells of a white 384-well Perkin Elmer Proxiplate, for a final compound concentration of 1× and final DMSO concentration of 1%. Inhibitor control and neutral control (NC, 100 nL of 100% DMSO) were stamped into columns 23 and 24 of assay plate, respectively. Into each well of the plate was then dispensed 10 μL of the 1×Tb-Mcl-1+Cy5 Bim peptide solution. The plate was centrifuged with a cover plate at 1000 rpm for 1 minute, then incubated for 60 minutes at room temperature with plates covered. The TR-FRET signal was read on an BMG PHERAStar FSX MicroPlate Reader at room temperature using the HTRF optic module (HTRF: excitation: 337 nm, light source: laser, emission A: 665 nm, emission B: 620 nm, integration start: 60 μs, integration time: 400 pts).
The BMG PHERAStar FSX MicroPlate Reader was used to measure fluorescence intensity at two emission wavelengths—665 nm and 620 nm—and report relative fluorescence units (RFU) for both emissions, as well as a ratio of the emissions (665 nm/620 nm)*10,000. The RFU values were normalized to percent inhibition as follows:
% inhibition=(((NC−IC)−(compound−IC))/(NC−IC))*100
where IC (inhibitor control, low signal)=mean signal of 1×Tb-MC1-1+Cy5 Bim peptide+inhibitor control or 100% inhibition of Mcl-1; NC (neutral control, high signal)=mean signal 1×Tb-MC1-1+Cy5 Bim peptide with DMSO only or 0% inhibition
An 11-point dose response curve was generated to determine IC50 values (using GenData) based on the following equation:
Y=Bottom+(Top−Bottom)/(1+10^((log IC50−X)*HillSlope))
where Y=% inhibition in the presence of X inhibitor concentration; Top=100% inhibition derived from the IC (mean signal of Mcl-1+inhibitor control); Bottom=0% inhibition derived from the NC (mean signal of Mcl-1+DMSO); Hillslope=Hill coefficient; and IC50=concentration of compound with 50% inhibition in relation to top/neutral control (NC).
In this assay [L]=8 nM and Kd=10 nM
Representative compounds of the present invention were tested according to the procedure as described above, with results as listed in the Table below (n.d. means not determined).
(In general: Time-resolved FRET reads energy transfer from a long-lived donor to a nearby acceptor.)

The test system of experiment [2] is MOLP-8 human multiple myeloma cell line. As to the kind of experiment: MOLP8 Caspase-Glo 3/7 apoptosis induction assay. Type of experiment: cell-based. The conditions noted are these: MOLP-8 cells, 2 hours incubation at 37° C., averaged values over all runs on all batches. An excerpt: MCL-1 is a regulator of apoptosis and is highly over-expressed in tumor cells that escape cell death. The assay evaluates the cellular potency of small-molecule compounds targeting regulators of the apoptosis pathway, primarily MCL-1, Bfl-1, Bcl-2, and other proteins of the Bcl-2 family. Protein-protein inhibitors disrupting the interaction of anti-apoptotic regulators with BH3-domain proteins initiate apoptosis.
The Caspase-Glo® 3/7 Assay is a luminescent assay that measures caspase-3 and -7 activities in purified enzyme preparations or cultures of adherent or suspension cells. The assay provides a proluminescent caspase-3/7 substrate, which contains the tetrapeptide sequence DEVD. This substrate is cleaved to release aminoluciferin, a substrate of luciferase used in the production of light. Addition of the single Caspase-Glo® 3/7 Reagent in an “add-mix-measure” format results in cell lysis, followed by caspase cleavage of the substrate and generation of a “glow-type” luminescent signal.
This assay uses the MOLP-8 human multiple myeloma cell line, which is sensitive to MCL-1 inhibition.
Materials: • Perkin Elmer Envision • Multidrop 384 and small volume dispensing cassettes • Centrifuge • Countess automated cell counter • Countess counting chamber slides • Assay plate: ProxiPlate-384 Plus, White 384-shallow well Microplate • Sealing tape: Topseal A plus • T175 culture flask
Cell cultures were maintained between 0.2 and 2.0×10^6 cells/mL. The cells were harvested by collection in 50 mL conical tubes. The cells were then pelleted at 500 g for 5 mins before removing supernatant and resuspension in fresh pre-warmed culture medium. The cells were counted and diluted as needed.
The assay reagent was prepared by transferring the buffer solution to the substrate vial and mixing. The solution may be stored for up to 1 week at 4° C. with negligible loss of signal.
Compounds were delivered in assay-ready plates (Proxiplate) and stored at −20° C.
Assays always include 1 reference compound plate containing reference compounds. The plates were spotted with 40 nL of compounds (0.5% DMSO final in cells; serial dilution; 30 μM highest conc. 1/3 dilution, 10 doses, duplicates). The compounds were used at room temperature and 4 μL of pre-warmed media was added to all wells except column 2 and 23. The negative control was prepared by adding 1% DMSO in media. The positive control was prepared by adding the appropriate positive control compound in final concentration of 60 μM in media. The plate was prepared by adding 4 μL negative control to column 23, 4 μL positive control to column 2 and 4 μL cell suspension to all wells in the plate. The plate with cells was then incubated at 37° C. for 2 hours. The assay signal reagent is the Caspase-Glo solution described above, and 8 μL was added to all wells. The plates were then sealed and measured after 30 minutes.
The activity of a test compound was calculated as percent change in apoptosis induction as follows: • LC=median of the Low Control values • =Central Reference in Screener • =DMSO • =0% • HC=Median of the High Control values • =Scale Reference in Screener • =30 μM of positive control • =100% apoptosis induction
% Effect (AC50)=100−((sample−LC)/(HC−LC))*100
% Control=(sample/HC)*100
% Control min=((sample−LC)/(HC−LC))*100

Chain of Myeloid Cell Leukemia 1 (Mcl-1) (Q07820 whole entry): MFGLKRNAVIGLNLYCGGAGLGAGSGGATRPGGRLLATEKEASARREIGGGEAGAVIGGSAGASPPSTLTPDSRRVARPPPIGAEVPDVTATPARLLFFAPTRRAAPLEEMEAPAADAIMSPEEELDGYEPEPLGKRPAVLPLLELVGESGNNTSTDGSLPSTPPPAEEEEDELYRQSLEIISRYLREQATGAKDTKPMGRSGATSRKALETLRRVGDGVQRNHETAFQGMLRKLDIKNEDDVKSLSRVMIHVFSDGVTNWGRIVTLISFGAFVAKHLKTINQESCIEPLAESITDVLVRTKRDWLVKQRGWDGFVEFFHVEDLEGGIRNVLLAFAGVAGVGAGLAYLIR

Regarding `COc1ccc(COC2CCc3cc(n(C)n3)CCc3cc(c4ccc(F)cc4c3)OCCCn3c(C(=O)O)c(C)c4c(c(Cl)ccc43)-c3c2nn(C)c3C)cc1` (single isomer, unassigned) [Compound 22], the Ki in experiment [1] worked out at 0.357 nM. In experiment [2], the AC50 came to 1000 nM.

Consider `COCCOCCC1OCc2cc(n(C)n2)CCc2cc(c3ccc(F)cc3c2)OCCCn2c(C(=O)O)c(C)c3c(c(Cl)ccc32)-c2c1nn(C)c2C` (single isomer, unassigned) [Compound 5], for which, in experiment [1], the Ki came out at 0.011 nM. This compound also gave a half-maximal activity concentration (AC50) in experiment [2] (Homo sapiens, MOLP-8, 2 h) of 22.6 nM.

With `COCC1OCc2cc(n(C)n2)CCc2cc(c3ccc(F)cc3c2)OCCCn2c(C(=O)O)c(C)c3c(c(Cl)ccc32)-c2c1nn(C)c2C` (single isomer, unassigned) [Compound 15], the Ki in experiment [1] came out at 0.048 nM. Also, the AC50 in experiment [2] is 66.1 nM.

For `C=CC1OCc2cc(n(C)n2)CCc2cc(c3ccc(F)cc3c2)OCCCn2c(C(=O)O)c(C)c3c(c(Cl)ccc32)-c2c1nn(C)c2C` (single isomer, unassigned) [Compound 2], the Ki in experiment [1] was determined as 0.024 nM. The compound also came in with an AC50 in experiment [2] of 19.5 nM.

For `Cc1c(C(=O)O)n2c3ccc(Cl)c(c13)-c1c(nn(C)c1C)C(CCCO)OCc1cc(n(C)n1)CCc1cc(c3ccc(F)cc3c1)OCCC2` (single isomer, unassigned) [Compound 11], the Ki in experiment [1] stood at 0.01 nM. This compound also had an AC50 in experiment [2] of 303 nM.

Take `COCCC1OCc2cc(n(C)n2)CCc2cc(c3ccc(F)cc3c2)OCCCn2c(C(=O)O)c(C)c3c(c(Cl)ccc32)-c2c1nn(C)c2C` (single isomer, unassigned) [Compound 4]: the Ki in experiment [1] was 0.009 nM. In experiment [2], the AC50 came to 28.4 nM.

Consider `COCCOCC1OCc2cc(n(C)n2)CCc2cc(c3ccc(F)cc3c2)OCCCn2c(C(=O)O)c(C)c3c(c(Cl)ccc32)-c2c1nn(C)c2C` (single isomer, unassigned) [Compound 14], for which the Ki in experiment [1] turned out to be 0.018 nM. In addition, the AC50 in experiment [2] (Homo sapiens, MOLP-8, 2 h) stood at 205 nM.

As to `COCCCC1OCc2cc(n(C)n2)CCc2cc(c3ccc(F)cc3c2)OCCCn2c(C(=O)O)c(C)c3c(c(Cl)ccc32)-c2c1nn(C)c2C` (single isomer, unassigned) [Compound 12], the Ki in experiment [1] is 0.015 nM. For the same compound, the AC50 in experiment [2] came to 57.8 nM.

For the compound `COCCCC1OCc2cc(n(C)n2)CCc2cc(c3ccc(F)cc3c2)OCCCn2c(C(=O)O)c(C)c3c(c(Cl)ccc32)-c2c1nn(C)c2C` (single isomer, unassigned) [Compound 24], the Ki in experiment [1] was found to be 8.42 nM. Further, the AC50 in experiment [2] is greater than 25 nM.

The Ki is the equilibrium dissociation constant of an inhibitor or competing ligand from its target. Usually AC50 stands for the concentration giving half of the maximal activity seen. Read a high AC50 as activity only at high concentration.
